{
  "source": "paper PMC11649115",
  "about": "“In vitro safety evaluation of dopamine D3R antagonist, R-VK4-116, as a potential medication for the treatment of opioid use disorder” (PLOS ONE, 2024)",
  "key": {"human hepatocytes": {"test_system": "human hepatocytes", "test": "MTT assay, hepatocyte viability", "assay_type": "cell-based"}, "OAT1": {"molecular_target": "T1, OAT1 (Homo sapiens, UniProt Q4U2R8)", "T1 construct": "expressed in transfected cells; host or cells: MDCK-II cells", "T1 sequence (Q4U2R8 1-563)": "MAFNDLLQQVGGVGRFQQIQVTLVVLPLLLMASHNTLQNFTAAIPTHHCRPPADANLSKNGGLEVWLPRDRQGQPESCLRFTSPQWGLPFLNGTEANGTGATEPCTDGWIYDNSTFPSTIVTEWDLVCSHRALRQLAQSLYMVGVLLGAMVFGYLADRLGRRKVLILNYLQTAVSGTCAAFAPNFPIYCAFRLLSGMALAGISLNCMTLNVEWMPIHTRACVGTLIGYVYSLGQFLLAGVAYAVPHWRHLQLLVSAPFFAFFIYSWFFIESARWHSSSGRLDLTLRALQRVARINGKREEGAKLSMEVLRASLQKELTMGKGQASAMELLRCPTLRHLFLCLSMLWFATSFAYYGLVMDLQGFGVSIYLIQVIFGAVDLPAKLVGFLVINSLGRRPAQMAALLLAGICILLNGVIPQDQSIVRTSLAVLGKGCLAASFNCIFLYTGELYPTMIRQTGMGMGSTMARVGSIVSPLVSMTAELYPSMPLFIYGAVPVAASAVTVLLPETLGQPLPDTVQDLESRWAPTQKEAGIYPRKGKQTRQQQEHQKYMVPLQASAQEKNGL", "test": "Transporter mediated assay (substrate/inhibitor), MDCK-II cells", "assay_type": "in vitro ADME", "procedure": "(§1) The MDCK-II cells were treated to express the transporter of interest. The transport of each probe substrate was determined by radiometric detection (Fig 1 in S1 File). […] For the uptake assay, the net transporter-mediated uptake-rate (V) of the substrate by each SLC transporter was calculated as follows: Transporter–mediatedupdaterate(pmol/min/cm^2)=(Cellularaccumulationincellsexpressingthetransporter)−(Meancellularaccumulationincontrolcells)/Surfacearea×incubationtime"}, "OCT2": {"molecular_target": "T2, OCT2 (Homo sapiens, UniProt O15244)", "T2 construct": "expressed in transfected cells; host or cells: MDCK-II cells", "T2 sequence (O15244 1-555)": "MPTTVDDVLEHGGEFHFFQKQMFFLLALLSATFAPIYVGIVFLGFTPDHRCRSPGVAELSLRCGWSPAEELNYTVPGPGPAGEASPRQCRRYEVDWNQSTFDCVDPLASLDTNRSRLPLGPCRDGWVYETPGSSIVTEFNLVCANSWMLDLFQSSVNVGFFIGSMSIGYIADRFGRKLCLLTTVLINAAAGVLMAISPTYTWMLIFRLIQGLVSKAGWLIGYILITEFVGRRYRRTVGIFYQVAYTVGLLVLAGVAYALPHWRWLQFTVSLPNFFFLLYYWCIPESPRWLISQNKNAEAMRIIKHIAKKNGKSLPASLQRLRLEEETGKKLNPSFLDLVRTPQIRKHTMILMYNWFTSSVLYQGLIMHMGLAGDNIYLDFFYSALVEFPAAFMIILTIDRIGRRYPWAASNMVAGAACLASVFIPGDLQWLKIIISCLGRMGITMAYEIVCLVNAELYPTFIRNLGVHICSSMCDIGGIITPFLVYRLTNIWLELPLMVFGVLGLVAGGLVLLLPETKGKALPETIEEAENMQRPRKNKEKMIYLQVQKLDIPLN", "test": "Transporter mediated assay (substrate/inhibitor), MDCK-II cells", "assay_type": "in vitro ADME", "procedure": "as §1\nFold of activity and percent inhibition were determined as follows: Foldofactivity=(Meanuptakerate)transporterexpressingcells/(Meanuptakerate)controlcells Percentinhibition=100−100×(Transport‐mediatedupdaterate)withinhibitor/(Transport‐mediatedupdaterate)vehiclecontrol"}, "P-gp": {"molecular_target": "T3, P-gp (Homo sapiens, UniProt P08183)", "T3 construct": "expressed in transfected cells; host or cells: MDCK-II cells", "T3 sequence (P08183 whole entry)": "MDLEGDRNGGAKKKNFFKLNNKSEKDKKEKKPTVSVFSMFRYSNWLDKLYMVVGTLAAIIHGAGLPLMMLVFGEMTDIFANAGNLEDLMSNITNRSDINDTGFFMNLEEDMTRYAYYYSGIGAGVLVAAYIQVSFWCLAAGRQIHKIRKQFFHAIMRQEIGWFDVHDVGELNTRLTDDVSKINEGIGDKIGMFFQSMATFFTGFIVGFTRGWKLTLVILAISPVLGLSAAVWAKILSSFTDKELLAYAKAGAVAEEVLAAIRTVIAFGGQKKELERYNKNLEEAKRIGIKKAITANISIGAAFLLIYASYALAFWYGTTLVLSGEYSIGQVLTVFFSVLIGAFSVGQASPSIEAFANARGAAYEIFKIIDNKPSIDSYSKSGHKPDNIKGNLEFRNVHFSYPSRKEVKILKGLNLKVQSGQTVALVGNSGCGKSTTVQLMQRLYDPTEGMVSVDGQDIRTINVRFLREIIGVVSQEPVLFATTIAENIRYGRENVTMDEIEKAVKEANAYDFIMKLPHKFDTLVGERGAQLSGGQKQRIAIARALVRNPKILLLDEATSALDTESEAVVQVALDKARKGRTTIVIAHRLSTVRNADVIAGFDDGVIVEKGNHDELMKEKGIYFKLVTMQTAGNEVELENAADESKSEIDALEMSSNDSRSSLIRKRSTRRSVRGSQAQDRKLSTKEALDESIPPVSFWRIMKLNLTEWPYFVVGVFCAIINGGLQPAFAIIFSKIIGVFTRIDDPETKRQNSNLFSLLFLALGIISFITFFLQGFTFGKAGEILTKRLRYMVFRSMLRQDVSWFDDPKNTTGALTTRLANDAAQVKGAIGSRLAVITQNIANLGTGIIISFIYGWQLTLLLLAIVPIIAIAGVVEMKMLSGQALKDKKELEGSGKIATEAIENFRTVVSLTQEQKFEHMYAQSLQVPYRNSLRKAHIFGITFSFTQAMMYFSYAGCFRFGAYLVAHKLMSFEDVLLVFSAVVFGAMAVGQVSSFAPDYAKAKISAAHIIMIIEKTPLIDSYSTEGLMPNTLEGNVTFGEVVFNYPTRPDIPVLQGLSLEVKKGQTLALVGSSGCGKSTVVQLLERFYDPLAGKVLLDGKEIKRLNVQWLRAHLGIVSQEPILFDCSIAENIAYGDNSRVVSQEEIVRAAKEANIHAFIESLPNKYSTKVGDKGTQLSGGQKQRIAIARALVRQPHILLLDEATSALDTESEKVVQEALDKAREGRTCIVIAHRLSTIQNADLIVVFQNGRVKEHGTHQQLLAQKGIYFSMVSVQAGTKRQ", "test": "Transporter mediated assay (substrate/inhibitor), MDCK-II cells", "assay_type": "in vitro ADME", "conditions": "human", "procedure": "The MDCK-II cells were treated to express the transporter of interest.\nFor BCRP and P-gp, the apparent permeability Papp and Efflux Ratio (ER) were calculated [16]. Net basal (B) to apical (A) flux (B → A) of the substrate transport (pmol/min/cm^2) by BCRP or P-gp was calculated by subtracting A → B flux from B → A flux."}, "Kir2.1": {"molecular_target": "T4, Kir2.1 (Homo sapiens, UniProt P63252)", "T4 sequence (P63252 1-427)": "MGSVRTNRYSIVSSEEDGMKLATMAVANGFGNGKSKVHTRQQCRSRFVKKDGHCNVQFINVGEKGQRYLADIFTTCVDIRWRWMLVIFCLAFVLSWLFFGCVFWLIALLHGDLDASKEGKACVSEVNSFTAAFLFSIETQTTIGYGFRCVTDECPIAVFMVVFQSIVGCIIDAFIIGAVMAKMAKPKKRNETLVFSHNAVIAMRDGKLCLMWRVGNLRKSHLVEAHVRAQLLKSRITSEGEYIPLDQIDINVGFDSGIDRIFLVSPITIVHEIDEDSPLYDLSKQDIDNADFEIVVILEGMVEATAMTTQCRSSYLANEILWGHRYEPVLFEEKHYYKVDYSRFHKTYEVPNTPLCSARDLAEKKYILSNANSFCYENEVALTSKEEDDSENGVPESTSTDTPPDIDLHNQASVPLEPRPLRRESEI", "test": "CiPA IonChannelProfiler Cardiac Panel, QPatch", "assay_type": "cell-based", "conditions": "Kir2.1, 100 μM"}, "SRPK2": {"molecular_target": "T5, SRPK2 (Homo sapiens, UniProt P78362)", "T5 construct": "made in house; host or cells: E. coli BL21-derived host (T7 phage) or HEK-293", "T5 sequence (P78362 whole entry)": "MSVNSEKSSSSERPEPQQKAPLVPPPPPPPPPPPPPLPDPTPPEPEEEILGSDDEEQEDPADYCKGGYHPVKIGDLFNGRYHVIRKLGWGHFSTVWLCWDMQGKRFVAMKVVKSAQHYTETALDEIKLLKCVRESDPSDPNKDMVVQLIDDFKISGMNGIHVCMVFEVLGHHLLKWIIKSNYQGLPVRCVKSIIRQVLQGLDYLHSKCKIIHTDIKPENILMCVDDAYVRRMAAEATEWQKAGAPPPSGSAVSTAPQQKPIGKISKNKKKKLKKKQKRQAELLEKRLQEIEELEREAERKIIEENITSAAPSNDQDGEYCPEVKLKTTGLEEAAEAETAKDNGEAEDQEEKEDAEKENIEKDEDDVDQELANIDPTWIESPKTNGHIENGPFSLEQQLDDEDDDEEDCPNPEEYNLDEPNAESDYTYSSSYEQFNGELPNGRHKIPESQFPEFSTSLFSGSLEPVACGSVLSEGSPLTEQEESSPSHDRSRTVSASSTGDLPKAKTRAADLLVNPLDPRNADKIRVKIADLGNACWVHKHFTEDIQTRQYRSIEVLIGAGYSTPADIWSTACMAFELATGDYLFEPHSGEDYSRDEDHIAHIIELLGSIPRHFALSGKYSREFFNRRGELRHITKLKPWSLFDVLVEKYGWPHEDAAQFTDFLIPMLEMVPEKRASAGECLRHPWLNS", "test": "KINOMEscan binding (% Ctrl, Kd)", "procedure": "Briefly, E. coli host derived from the BL21 strain were grown to log-phase and infected with kinase-tagged T7 phage and incubated with shaking at 32°C until lysis. The lysates were centrifuged and filtered to remove cell debris. The remaining kinases were produced in HEK-293 cells and subsequently tagged with DNA for qPCR detection. Streptavidin-coated magnetic beads were treated with biotinylated small molecule ligands to generate affinity resins for kinase assays. The liganded beads were blocked with excess biotin and washed to remove unbound ligand and to reduce non-specific phage binding. […] Selectivity Score (S-score) was a quantitative measure of compound selectivity. […] The binding constants (Kds) were also determined with a standard dose-response curve using the Hill equation and Levenberg-Marquardt algorithm [24, 25]."}, "[1]": {"test": "Phospholipidosis and steatosis, high content screening", "assay_type": "cell-based", "set-up": "key to Cell count, Trend (↑↓) / Nuclear size, Trend (↑↓) / DNA structure, Trend (↑↓) / Phospholipidosis, Trend (↑↓) / Steatosis, Trend (↑↓): ↑: increasing trend of response; ↓: decreasing trend of response", "conditions": "human, HepG2 cells"}, "HepG2 cells": {"test_system": "HepG2 cells", "test": "Phospholipidosis and steatosis, high content screening", "assay_type": "cell-based", "set-up": "key to Cell count, Trend (↑↓) / Nuclear size, Trend (↑↓) / DNA structure, Trend (↑↓) / Phospholipidosis, Trend (↑↓) / Steatosis, Trend (↑↓): ↑: increasing trend of response; ↓: decreasing trend of response"}, "[2]": {"test_system": "oxycodone self-administration", "set-up": "method as in PMID 30555159", "conditions": "rodents, 5, 15 and 25 mg/kg ref 6; cited from earlier work"}, "[3]": {"conditions": "MDCK-MDR1, P-gp, substrate test, 1 µM"}},
  "note": "Values joined by “and” are separate entries in the source; they are usually repeats but may differ in a detail not shown here. Equal entries are not always repeated. Where two headings read alike, the source gives them in different places.",
  "data": [
    {"smiles": "CCc1cc(Cl)c(OC)c(N2CCN(CC(O)CCNC(=O)c3cc4ccccc4[nH]3)CC2)c1", "note": "(stereo not drawn) [R-VK4-116, N-(4-(4-(3-chloro-5-ethyl-2-methoxyphenyl)piperazin-1-yl)-3-hydroxybutyl)-1H-indole-2-carboxamide]", "values": [
      {"measurement": "Hepatocyte Viability, MTT Assay Upfront (Mean)", "setting": "human hepatocytes; 0.01 µM", "value": 93},
      {"measurement": "Hepatocyte Viability, MTT Assay Upfront (Mean)", "setting": "human hepatocytes; 0.1 µM", "value": 105},
      {"measurement": "Hepatocyte Viability, MTT Assay Upfront (Mean)", "setting": "human hepatocytes; 1 µM", "value": 86},
      {"measurement": "Hepatocyte Viability, MTT Assay Upfront (Mean)", "setting": "human hepatocytes; 3 µM", "value": 91},
      {"measurement": "Hepatocyte Viability, MTT Assay Upfront (Mean)", "setting": "human hepatocytes; 10 μM", "value": 73},
      {"measurement": "Hepatocyte Viability, MTT Assay Upfront (Mean)", "setting": "human hepatocytes; 30 µM", "value": 73},
      {"measurement": "Hepatocyte Viability, Concurrent MTT Assay (Mean)", "setting": "human hepatocytes; Lot 336, 0.01 µM", "value": 96},
      {"measurement": "Hepatocyte Viability, Concurrent MTT Assay (Mean)", "setting": "human hepatocytes; Lot 336, 0.10 µM", "value": 90},
      {"measurement": "Hepatocyte Viability, Concurrent MTT Assay (Mean)", "setting": "human hepatocytes; Lot 336, 1 µM", "value": 91},
      {"measurement": "Hepatocyte Viability, Concurrent MTT Assay (Mean)", "setting": "human hepatocytes; Lot 336, 3 µM", "value": 80},
      {"measurement": "Hepatocyte Viability, Concurrent MTT Assay (Mean)", "setting": "human hepatocytes; Lot 336, 5 µM", "value": 75},
      {"measurement": "Hepatocyte Viability, Concurrent MTT Assay (Mean)", "setting": "human hepatocytes; Lot 336, 10 µM", "value": 73},
      {"measurement": "Hepatocyte Viability, Concurrent MTT Assay (Mean)", "setting": "human hepatocytes; Lot 348B, 0.01 µM", "value": 100},
      {"measurement": "Hepatocyte Viability, Concurrent MTT Assay (Mean)", "setting": "human hepatocytes; Lot 348B, 0.10 µM", "value": 101},
      {"measurement": "Hepatocyte Viability, Concurrent MTT Assay (Mean)", "setting": "human hepatocytes; Lot 348B, 1 µM", "value": 104},
      {"measurement": "Hepatocyte Viability, Concurrent MTT Assay (Mean)", "setting": "human hepatocytes; Lot 348B, 3 µM", "value": 96},
      {"measurement": "Hepatocyte Viability, Concurrent MTT Assay (Mean)", "setting": "human hepatocytes; Lot 348B, 5 µM", "value": 97},
      {"measurement": "Hepatocyte Viability, Concurrent MTT Assay (Mean)", "setting": "human hepatocytes; Lot 348B, 10 µM", "value": 102},
      {"measurement": "Hepatocyte Viability, Concurrent MTT Assay (Mean)", "setting": "human hepatocytes; Lot 399, 0.01 µM", "value": 107},
      {"measurement": "Hepatocyte Viability, Concurrent MTT Assay (Mean)", "setting": "human hepatocytes; Lot 399, 0.10 µM", "value": 104},
      {"measurement": "Hepatocyte Viability, Concurrent MTT Assay (Mean)", "setting": "human hepatocytes; Lot 399, 1 µM", "value": 95},
      {"measurement": "Hepatocyte Viability, Concurrent MTT Assay (Mean)", "setting": "human hepatocytes; Lot 399, 3 µM", "value": 88},
      {"measurement": "Hepatocyte Viability, Concurrent MTT Assay (Mean)", "setting": "human hepatocytes; Lot 399, 5 µM", "value": 86},
      {"measurement": "Hepatocyte Viability, Concurrent MTT Assay (Mean)", "setting": "human hepatocytes; Lot 399, 10 µM", "value": 91},
      {"measurement": "hepatocyte viability, concurrent MTT assay", "setting": "human hepatocytes; ≤ 10 μM", "value": "no decrease of hepatocyte viability"},
      {"measurement": "fold difference in mean uptake rate (substrate test)", "setting": "OAT1; OAT1, 1 μM, transporter cells vs control cells", "value": "< 2", "unit": "fold"},
      {"measurement": "Inhibition (%)", "setting": "OAT1; OAT1, 0.1% BSA, 10 μM", "value": "no statistically significant inhibition"},
      {"measurement": "inhibition at 10 µM", "setting": "OAT1; human, polarized monolayer of MDCK-II cells expressing OAT1, OAT1, 0.1% BSA, 10 μM", "value": "8.97 ± 1.58", "unit": "%"},
      {"measurement": "fold difference in mean uptake rate (substrate test)", "setting": "OCT2; OCT2, 1 μM, transporter cells vs control cells", "value": "< 2", "unit": "fold"},
      {"measurement": "Inhibition (%)", "setting": "OCT2; OCT2, 0.1% BSA, 10 μM", "value": "no statistically significant inhibition"},
      {"measurement": "inhibition at 10 µM", "setting": "OCT2; human, polarized monolayer of MDCK-II cells expressing OCT2, OCT2, 0.1% BSA, 10 μM", "value": "-17.4 ± 1.88", "unit": "%"},
      {"measurement": "Papp A→B at 1 µM", "setting": "P-gp; [3]", "value": "< 0.2", "unit": "×10⁻⁶ cm/s"},
      {"measurement": "Papp B→A at 1 µM", "setting": "P-gp; [3]", "value": "< 0.1", "unit": "×10⁻⁶ cm/s"},
      {"measurement": "inhibition at 10 µM", "setting": "P-gp; probe quinidine 0.1 μM", "value": "56.5 ± 6.17", "unit": "%"},
      {"measurement": "inhibition at 100 µM", "setting": "Kir2.1; read-out: inhibition, End", "value": 97.2, "unit": "%"},
      {"measurement": "inhibition at 100 µM", "setting": "Kir2.1; read-out: inhibition, Peak", "value": 52.6, "unit": "%"},
      {"measurement": "Kd", "setting": "SRPK2; 11-point curve 0.001 to 10 μM, read-out: binding constant (Kd)", "value": "> 10", "unit": "µM"},
      {"measurement": "remaining binding at 1 µM", "setting": "SRPK2; read-out: %Control", "value": "< 35", "unit": "%"},
      {"measurement": "remaining binding at 1 µM", "setting": "SRPK2; read-out: Gene (S-score with % control): SRPK2", "value": 21, "unit": "%"},
      {"measurement": "AC50", "setting": "[1]; # AC50 greater than the maximum surviving concentration, (NS) = not statistically significant, read-out: Steatosis, AC50", "value": "> 100", "unit": "µM"},
      {"measurement": "AC50", "setting": "[1]; read-out: Cell count, AC50", "value": "> 100", "unit": "µM"},
      {"measurement": "AC50", "setting": "[1]; read-out: DNA structure, AC50", "value": "> 100", "unit": "µM"},
      {"measurement": "AC50", "setting": "[1]; read-out: Nuclear size, AC50", "value": "> 100", "unit": "µM"},
      {"measurement": "AC50", "setting": "[1]; read-out: Phospholipidosis, AC50", "value": 10.7, "unit": "µM"},
      {"measurement": "Phospholipidosis, Trend (↑↓)", "setting": "HepG2 cells", "value": "↑"},
      {"measurement": "Steatosis, Trend (↑↓)", "setting": "HepG2 cells", "value": "↑"},
      {"measurement": "Steatosis, MEC", "setting": "HepG2 cells; (NS) = not statistically significant", "value": "14.2 μM and 14.2 (NS) μM"},
      {"measurement": "oxycodone self-administration", "setting": "[2]", "value": "decreased"}
    ]}
  ]
}
